What is called melting point is the temperature, or range, at which the solid turns liquid.

`O=C(CCCBr)Oc1c2c(Cl)cccc2cc2cccc(Cl)c12` [Compound 3I, 1,8-Dichloro-9-(4-bromobutyroxy)anthracene] came in with a melting point of 155 to 157 °C.

With `O=C(Oc1c2c(Cl)cccc2cc2cccc(Cl)c12)c1ccccc1` [Compound 3L, 1,8-Dichloro-9-benzoyloxyanthracene], the melting point was in the range of 183 to 185 °C.

Take `CC(=O)Oc1c2c(Cl)cccc2cc2cccc(Cl)c12` [Compound 3a, 1,8-Dichloro-9-acetoxyanthracene]: the melting point fell in the range of 130 to 131 °C.

Molecule `O=C(CBr)Oc1c2c(Cl)cccc2cc2cccc(Cl)c12` [Compound 3b, 1,8-Dichloro-9-bromoacetoxyanthracene] returned a melting point of 192 to 193 °C.

As for `O=C(CCl)Oc1c2c(Cl)cccc2cc2cccc(Cl)c12` [Compound 3c, 1,8-Dichloro-9-chloroacetoxyanthracene], the melting point fell in the range of 178 to 180 °C.

`CCC(=O)Oc1c2c(Cl)cccc2cc2cccc(Cl)c12` [Compound 3d, 1,8-Dichloro-9-propionoxyanthracene] gave a melting point of 150 to 152 °C.

`CC(C)C(=O)Oc1c2c(Cl)cccc2cc2cccc(Cl)c12` [Compound 3e, 1,8-Dichloro-9-isobutyroxyanthracene] gave a melting point of 184 to 186 °C.

`CCCC(=O)Oc1c2c(Cl)cccc2cc2cccc(Cl)c12` [Compound 3h, 1,8-Dichloro-9-butyroxyanthracene] returned a melting point of 152 to 154 °C.

In the case of `CCCCCC(=O)Oc1c2c(Cl)cccc2cc2cccc(Cl)c12` [Compound 3k, 1,8-Dichloro-9-hexanoyloxyanthracene], the melting point lay within 136 to 138 °C.

The molecule `Cc1ccccc1C(=O)Oc1c2c(Cl)cccc2cc2cccc(Cl)c12` [Compound 3m, 1,8-Dichloro-9-(o-toluoyloxy)anthracene] came in with a melting point of 168 to 170 °C.

Molecule `Cc1cccc(C(=O)Oc2c3c(Cl)cccc3cc3cccc(Cl)c23)c1` [Compound 3n, 1,8-Dichloro-9-(m-toluoyloxy)anthracene] displayed a melting point of 196 to 198 °C.

`Cc1ccc(C(=O)Oc2c3c(Cl)cccc3cc3cccc(Cl)c23)cc1` [Compound 3o, 1,8-Dichloro-9-(p-toluoyloxy)anthracene] came in with a melting point of 220 to 222 °C.

The values are drawn from patent US6372785B1, “Synthesis of 1,8-dichloro-anthracene analogues and pharmaceutical compositions based thereon” (Keith Chan, President GloboAsia, LLC, priority 2000, dated 2002).
